Experimental data from patent US20090208432A1, “AH Receptor Antagonists” (SYMRISE GmbH & Co., KG, priority 2006, published 2009).

Biological target: T1, AhR (Homo sapiens, UniProt P35869)
T1 construct: endogenous in cells; host or cells: HaCaT keratinocytes
T1 sequence (P35869 11-848): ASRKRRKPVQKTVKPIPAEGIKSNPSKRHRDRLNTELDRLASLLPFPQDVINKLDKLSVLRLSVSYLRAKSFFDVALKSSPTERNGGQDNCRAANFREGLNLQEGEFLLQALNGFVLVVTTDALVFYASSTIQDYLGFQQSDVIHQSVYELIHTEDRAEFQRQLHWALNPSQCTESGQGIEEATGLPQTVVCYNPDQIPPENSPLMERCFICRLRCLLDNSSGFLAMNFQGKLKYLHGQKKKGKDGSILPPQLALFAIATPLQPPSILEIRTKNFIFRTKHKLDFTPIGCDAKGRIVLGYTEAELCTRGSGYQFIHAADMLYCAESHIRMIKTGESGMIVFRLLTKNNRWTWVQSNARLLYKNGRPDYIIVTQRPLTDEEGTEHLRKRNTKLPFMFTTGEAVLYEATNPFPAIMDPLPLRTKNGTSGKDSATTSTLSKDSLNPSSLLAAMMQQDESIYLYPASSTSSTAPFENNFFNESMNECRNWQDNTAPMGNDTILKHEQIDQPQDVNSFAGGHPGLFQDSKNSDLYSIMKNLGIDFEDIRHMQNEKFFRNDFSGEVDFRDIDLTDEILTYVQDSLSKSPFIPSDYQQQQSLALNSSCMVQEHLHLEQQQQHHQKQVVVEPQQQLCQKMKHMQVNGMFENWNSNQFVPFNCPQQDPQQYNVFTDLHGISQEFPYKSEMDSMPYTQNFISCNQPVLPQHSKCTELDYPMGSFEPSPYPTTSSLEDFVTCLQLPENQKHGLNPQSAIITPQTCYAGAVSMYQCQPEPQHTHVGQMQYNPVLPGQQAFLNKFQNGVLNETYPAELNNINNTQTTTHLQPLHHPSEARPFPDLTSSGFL
Assay: Quantification of AhR inhibition via determination of CYP1A1-mRNA in UVB-irradiated HaCaT keratinocytes
Assay type: cell-based
Conditions: HaCaT cells, 100 J/m^2 UVB, pretreated 1 h before irradiation, RNA after 4 h, relative to control (PBS, 0.1% DMSO, UVB-irradiated)
Source text: HaCaT keratinocytes were cultivated in DMEM containing 10% of foetal calf serum. The cells were irradiated with UVB in PBS (phosphate buffered saline). For irradiation with UVB we used a TL20W/12RS lamp, which contains four parallel tubes (Philips, Eindhoven, The Netherlands) and emits the bulk of its energy in the UVB range (290-320 nm). The emission peak of the lamp is at 310 nm. Control cells were subjected to the same treatment but were not irradiated. To inhibit the AhR, the cells were treated with the test substances 1 h prior to irradiation.
HaCaT cells were irradiated with 100 J/m^2 of UVB. Some cells were pretreated with the test substances 1 h prior to irradiation. […] The PCR mix was composed of 1/10 by volume of QuantiTect® SYBR Green PCR Master Mix (Qiagen, Hilden, Germany), 0.5 μmol/l of the appropriate primer, 2 μl of cDNA and DEPC-treated (diethyl pyrocarbonate-treated) H2O in a final volume of 20 μl. […] The PCR conditions were as follows: 40 cycles of 15 sec at 94° C. for denaturing, 25 sec at 60° C. for primer attachment, 30 sec at 72° C. for extension and 2 sec at 72° C. for fluorescence measurement. […] The PCR products were quantified via a fragment-specific standard curve using LightCycler software 3. […]
Quantification of AhR Inhibition Via Determination of CYP1A1-mRNA

Row | inhibition at 350 µM (0.35 mM, read-out: CYP1A1 inhibition in presence of UVB light) [%] | CYP1A1 inhibition in presence of UVB light (0.0001 wt. %) [%] | Structure (SMILES)
1 | 60 | – | Oc1ccc2c(c1)OC[C@H]1c3cc4c(cc3O[C@@H]21)OCO4 [Maackiain]
2 | – | 60 | Oc1ccc2c(c1)OC1c3cc(O)c(O)cc3COC1C2O (centres unmarked) [Peltogynol]
